Data as given in patent publication US7618984B2, “Sulfonamide compound” (Asahi Kasei Pharma Corporation, priority 2005, dated 2009).

Experiments:
[1] = test system: rabbit normal intraocular pressure; experiment: Intraocular pressure reducing action (Test Example 2); assay type: in vivo, Japanese white rabbit; details: Oryctolagus cuniculus, topical; 3 mM aqueous solution, 50 μl to the left eye; measured after 2, 4 and 6 hours; read-out: intraocular pressure reducing degree (max ΔIOP / intraocular pressure value immediately before administration × 100)
Protocol: A Japanese white rabbit having a body weight of about 2 kg was placed in a positioner and naturalized for one week before the experiment. An opthalmologic local anesthesant (Benoxil) was administered to both eyes, and then intraocular pressure was measured by using a tonometer (Classic 30, Solan). A 3 mM aqueous solution of a test compound was administered in a volume of 50 μl to the left eye, and the right eye was not treated (control eye). The intraocular pressure values were measured for the left and right eyes immediately before, and 2, 4 and 6 hours after the administration of the aqueous solution of the test compound, and the difference of the measured values for the left and right eyes was considered an intraocular pressure reduction value of the test medicament at each measurement time. The largest difference of the values for the left and right eyes among the measured values at the measurement times (after 2, 4 and 6 hours) was considered the maximum intraocular pressure reduction value (max ΔIOP) of each test medicament. The intraocular pressure reducing degree representing the intraocular pressure reducing action of each test medicament was calculated according to the following formula. Since rabbits show significant daily variation of intraocular pressure, daily variation is added when change of intraocular pressure is measured over time, and the intraocular pressure reducing action may be overestimated. Therefore, we used this calculation method of intraocular pressure reduction value in order to minimize the influence of the variation. Intraocular pressure reducing degree (%)=(max ΔIOP/Intraocular pressure value immediately before administration)×100

[2] = test system: phosphorylation of myosin regulatory light chain; experiment: Inhibitory action on phosphorylation of myosin regulatory light chain (Test Example 1); assay type: cell-based; details: Neutrophil, 5 min; human peripheral blood neutrophils, 25° C. for 5 minutes; read-out: IC50, compound concentration providing a phosphorylation inhibition ratio of 50% (myosin regulatory light chain)
Protocol: A volume of 50 to 100 ml of peripheral blood collected from healthy volunteers was centrifuged by using Mono-Poly separator solution (Dainippon Pharmaceutical) to prepare a neutrophil containing fraction. The neutrophils were washed with PBS(−) and resuspended in Hanks' Balanced Salt Solution (HBSS+, Gibco) to prepare a cell suspension (8×10^6/ml). The cell suspension was diluted to 5×10^6/ml, introduced into Eppendorf tubes in a volume of 0.4 ml each, then 0.1 ml each of solutions of a test compound at various concentrations were added to the suspension and allowed to react at 25° C. for 5 minutes. After the reaction, 0.1 ml of trichloroacetic acid solution was added to each reaction mixture, the reaction mixture was gently shaken and centrifuged at 12,000 rpm (4° C., 5 minutes), and the supernatant was removed. Subsequently, 3 μl of 1 M Tris solution was added to the residue, the mixture was further mixed with 50 μl of extraction buffer (8 M urea, 0.02% 2-mercaptoethanol, 0.002% bromophenol blue) and left stand at room temperature for 1 hour. Then, the reaction mixture was loaded on a spin column (0.45 μm, Millipore) to remove the insoluble solids and a sample buffer for SDS polyacrylamide gel electrophoresis (25 mM, Tris-HCl pH 6.8, 2.5% 2-mercaptoethanol, 2% sodium dodecylsulfate, 5% sucrose, 0.002% bromophenol blue as final concentrations) was added, and 10 μl of each sample was subjected to electrophoresis.
The gel after the electrophoresis was blotted on a nitrocellulose membrane (BioRad), blocked with 5% skim milk, and reacted successively with antibodies pLC1 (Sakurada K. et al, Am. J. Physiol., 274, C1563-C1572 (1998)), which specifically recognize the phosphorylated myosin regulatory light chain, and donkey anti-mouse IgG (Chemicon) conjugated with horseradish peroxidase. The band of the phosphorylated myosin regulatory light chain was detected on a film by using ECL Plus Kit (Amersham Pharmacia Biotech). This band was subjected to quantification using a densitometer. By using this value, the inhibitory ratio (%) for phosphorylation of the myosin regulatory light chain was calculated by using the following equation. Phosphorylation inhibition ratio(%)=1−(Band intensity of phosphorylated myosin regulatory light chain with addition of the test compound/Band intensity of phosphorylated myosin regulatory light chain without addition of the test compound)×100
Further, the phosphorylation inhibition ratio was calculated with changing the concentrations of the test compound, and a compound concentration providing an inhibition ratio of 50% was obtained as IC50.

[3] = test system: neutrophils; experiment: Neutrophil migration inhibitory action, Boyden Chamber, FMLP (Test Example 3); assay type: cell-based; details: 0.5 h, human neutrophils, FMLP 1 μM, 37° C., 30 minutes, read-out: IC50, compound concentration providing a migration inhibition ratio of 50%
Protocol: Neutrophils were isolated from 50 to 100 ml of peripheral blood collected from healthy human donors by the method described in Test Example 1 to obtain a cell suspension (8×10^6/ml). Subsequently, solutions of a test compound at various concentrations were introduced into wells of a 96-well plate in a volume of 125 μl per well, the cell suspension of an equivalent volume was added to it and the plate was preincubated at room temperature for 5 minutes. During the preincubation, FMLP (1 μM, Sigma) solution was added to the lower chamber to set Boyden Chamber, the preincubated cell suspension was added to the upper chamber in a volume of 200 μl per well, and the cells were allowed to migrate at 37° C. under 5% carbon dioxide for 30 minutes. The filter after the migration was collected, and the non-migrated cells adhered to the surface that faced the upper chamber were carefully wiped off. Then, the migrated cells on the back surface were stained with DifQuick dye solution (International Reagents), washed with water and dried, and then absorbance was measured at 595 nm. The inhibition ratio against migration (%) of a test compound was calculated by using the following equation: Migration inhibition ratio(%)=(1−Absorbance of the group with addition of test compound/Absorbance of the group without addition of test compound)×100
Further, the migration inhibitory ratio was calculated with changing the test compound concentration, and a compound concentration providing an inhibition ratio of 50% was obtained as IC50.

Structure (SMILES) | IC50 [2] | IC50 [3] | inhibition in vivo at 3000 µM [1]
N[C@H]1CCN(S(=O)(=O)c2cccc3c(O)ncc(Cl)c23)C1 [Example 30-1, (S)-3-Amino-1-(1-hydroxy-4-chloro-5-isoquinolinesulfonyl)pyrrolidine] |  |  | ≥ 20%
N#Cc1cncc2cccc(S(=O)(=O)N3CC[C@H](N)C3)c12 [Example 13-1, (S)-3-Amino-1-(4-cyano-5-isoquinolinesulfonyl)pyrrolidine] |  |  | 5 to 10%
N[C@H]1CCN(S(=O)(=O)c2cccc3c(O)ncc(F)c23)C1 [Example 29-1, (S)-3-Amino-1-(1-hydroxy-4-fluoro-5-isoquinolinesulfonyl)pyrrolidine] |  |  | 10 to 20%
CN[C@H]1CCN(S(=O)(=O)c2cccc3c(N)ncc(Br)c23)C1 [Example 42-1, (S)-1-(1-Amino-4-bromo-5-isoquinolinesulfonyl)-3-(methylamino)pyrrolidine] |  |  | 5 to 10%
N[C@H]1CCN(S(=O)(=O)c2cccc3cncc(-c4cnoc4)c23)C1 [Example 24-1, (S)-3-Amino-1-[4-(4-isoxazolyl)-5-isoquinolinesulfonyl]pyrrolidine] |  |  | 5 to 10%
Nc1ncc(Cl)c2c(S(=O)(=O)N3CC[C@H](N)C3)cccc12 [Example 39-1, (S)-3-Amino-1-(1-amino-4-chloro-5-isoquinolinesulfonyl)pyrrolidine] |  |  | 10 to 20%
Cc1cncc2cccc(S(=O)(=O)N3CC(N)C3)c12 [Example 26, 3-Amino-1-(4-methyl-5-isoquinolinesulfonyl)azetidine] | < 10 µM | 10 to 40 µM | 5 to 10%
CN[C@H]1CCN(S(=O)(=O)c2cccc3c(N)ncc(Cl)c23)C1 [Example 40-1, (S)-1-(1-Amino-4-chloro-5-isoquinolinesulfonyl)-3-(methylamino)pyrrolidine] |  |  | 5 to 10%
O=S(=O)(c1cccc2c(O)ncc(Br)c12)N1CC[C@H](NCc2ccco2)C1 [Example 38-1, (S)-1-(1-Hydroxy-4-bromo-5-isoquinolinesulfonyl)-3-(2-furylmethylamino)pyrrolidine] |  |  | 5 to 10%
CN[C@@H]1CCN(S(=O)(=O)c2cccc3c(O)ncc(Cl)c23)C1 [Example 36-2, (R)-1-(1-Hydroxy-4-chloro-5-isoquinolinesulfonyl)-3-(methylamino)pyrrolidine] |  |  | 10 to 20%
CN[C@H]1CCN(S(=O)(=O)c2cccc3c(O)ncc(Br)c23)C1 [Example 35-1, (S)-1-(1-Hydroxy-4-bromo-5-isoquinolinesulfonyl)-3-(methylamino)pyrrolidine] |  |  | 5 to 10%

Continued, in another order:

IC50 [2] | IC50 [3] | Structure (SMILES) | inhibition in vivo at 3000 µM [1]
10 to 40 µM |  | N[C@H]1CCCN(S(=O)(=O)c2cccc3cncc(Cl)c23)C1 [Example 21-1, (S)-3-Amino-1-(4-chloro-5-isoquinolinesulfonyl)piperidine] | ≥ 20%
< 10 µM | < 10 µM | O=S(=O)(c1cccc2cncc(Br)c12)N1CC[C@H](NCc2ccco2)C1 [Example 4-1, (S)-3-(2-Furylmethyl)amino-1-(4-bromo-5-isoquinolinesulfonyl)pyrrolidine] | ≥ 20%
< 10 µM | 10 to 40 µM | N[C@@H]1CCN(S(=O)(=O)c2cccc3cncc(Br)c23)C1 [Example 1-2, (R)-3-Amino-1-(4-bromo-5-isoquinolinesulfonyl)pyrrolidine] | ≥ 20%
10 to 40 µM |  | N[C@@H]1CCCN(S(=O)(=O)c2cccc3cncc(Cl)c23)C1 [Example 21-2, (R)-3-Amino-1-(4-chloro-5-isoquinolinesulfonyl)piperidine] | 10 to 20%
10 to 40 µM |  | COc1cncc2cccc(S(=O)(=O)N3CC[C@H](N)C3)c12 [Example 15-1, (S)-3-Amino-1-(4-methoxy-5-isoquinolinesulfonyl)pyrrolidine] | 5 to 10%
< 10 µM | < 10 µM | CN[C@H]1CCN(S(=O)(=O)c2cccc3c(O)ncc(Cl)c23)C1 [Example 36-1, (S)-1-(1-Hydroxy-4-chloro-5-isoquinolinesulfonyl)-3-(methylamino)pyrrolidine] | 10 to 20%
< 10 µM | < 10 µM | N[C@H]1CCN(S(=O)(=O)c2cccc3c(O)ncc(Br)c23)C1 [Example 7-1, (S)-3-Amino-1-(1-hydroxy-4-bromo-5-isoquinolinesulfonyl)pyrrolidine] | ≥ 20%
10 to 40 µM |  | N[C@H]1CCN(S(=O)(=O)c2cccc3cncc(F)c23)C1 [Example 18-1, (S)-3-Amino-1-(4-fluoro-5-isoquinolinesulfonyl)pyrrolidine] | ≥ 20%
< 10 µM | 10 to 40 µM | CN[C@@H]1CCN(S(=O)(=O)c2cccc3cncc(Cl)c23)C1 [Example 32-2, (R)-1-(4-Chloro-5-isoquinolinesulfonyl)-3-(methylamino)pyrrolidine] | 10 to 20%
< 10 µM | < 10 µM | Cc1cncc2cccc(S(=O)(=O)N3CC[C@H](N)C3)c12 [Example 8-1, (S)-3-Amino-1-(4-methyl-5-isoquinolinesulfonyl)pyrrolidine] | ≥ 20%
< 10 µM | 10 to 40 µM | C=Cc1cncc2cccc(S(=O)(=O)N3CC[C@H](N)C3)c12 [Example 9-1, (S)-3-Amino-1-(4-vinyl-5-isoquinolinesulfonyl)pyrrolidine] | ≥ 20%
10 to 40 µM |  | Nc1cncc2cccc(S(=O)(=O)N3CC[C@H](N)C3)c12 [Example 12-1, (S)-3-Amino-1-(4-amino-5-isoquinolinesulfonyl)pyrrolidine] | 10 to 20%
< 10 µM | 10 to 40 µM | Cc1cncc2cccc(S(=O)(=O)N3CCC[C@H](N)C3)c12 [Example 22-1, (S)-3-Amino-1-(4-methyl-5-isoquinolinesulfonyl)piperidine] | 10 to 20%
< 10 µM | < 10 µM | Cc1cncc2cccc(S(=O)(=O)N3CC[C@@H](N)C3)c12 [Example 8-2, (R)-3-Amino-1-(4-methyl-5-isoquinolinesulfonyl)pyrrolidine] | ≥ 20%
< 10 µM | 10 to 40 µM | CN[C@@H]1CCN(S(=O)(=O)c2cccc3cncc(C)c23)C1 [Example 27, (R)-3-(Methylamino)-1-(4-methyl-5-isoquinolinesulfonyl)pyrrolidine] | 5 to 10%
